Test results published in publication PMC12597941 (Frontiers in Pharmacology, 2025).

Legend:
[1] = Plasma levels of terpene lactones, flavonol aglycones and PAC metabolites in T-maze mice; assay type: in vivo
Protocol: Targeted LC-MS/MS was used to quantify known and newly identified PAC metabolites (MRM transitions based on MS2 spectra of the untargeted analysis), as well as main ginkgo terpene lactones and flavonol aglycones in one single run in mouse plasma obtained from the pharmacological experiments (Supplementary Table S1).
The injection volume was 10 µL. […] Data processing was carried out with MassHunter Quantitative Analysis 10.1 software.
Plasma levels of terpene lactones (ginkgolide A, ginkgolide B, and bilobalide) and main ginkgo flavonol aglycones (quercetin, kaempferol, and isorhamnetin) were quantified in samples from animals used in the T-maze model. The detailed protocols for the analysis methods are included in the Supplementary Material.
Quantification of Acetylcholine in plasma […]
as described in the manufacturer’s instructions. […]
for 30 min at room temperature. […]
subtracted and of ACh concentration was calculated.
Flavonol aglycone quantification in plasma […]
methanol. […]
Data processing was conducted with mass hunter quantitative analysis 10.1.
Terpene lactone quantification in plasma […]
An Agilent 7890B GC (Agilent, Santa Clara, CA) coupled to an Agilent 7000D triple-quadrupole MS (Agilent, Santa Clara, CA) was used to analyze all samples. […] Target analytes were analyzed in negative ion chemical ionization with multiple reaction monitoring (MRM) mode using […]

[2] = Untargeted LC-HRMS metabolite profiling after oral PAC administration
Protocol: Animals to be sacrificed at 6 h (only test item-treated animals) were placed in metabolic cages (650-0100, Nalgene) for the collection of urine. Urine was stabilized with a final concentration of 4 mM NaN3 and stored at 4 °C. At 1 h and 6 h after the administration of the vehicle (1 h only) or test items (1 and 6 h), animals from the respective treatment groups were euthanized by CO2 inhalation. Blood was obtained by cardiac puncture and drawn in lithium-heparin-containing vials for the preparation of plasma by centrifugation (4,000 rpm, 4 °C, 10 min). Plasma was stored at −80 °C until bioanalytical analysis. Samples of the mixed intestinal content were obtained by scraping the small intestine, cecum, and large intestine into a 5-mL tube. Tubes were covered with gaseous N2 and stored at −80 °C.
The supernatant was evaporated to dryness and resuspended in 150 µL 1% FA in H2O/ACN (9/1, v/v) for analysis.
Rat intestinal content was first freeze-dried and finely crushed. […] Ethyl acetate extracts were evaporated to dryness and then resuspended in 300 µL 1% FA in H2O/ACN (9/1, v/v) for untargeted LC-HRMS analysis. Internal standards (listed in Supplementary Table S1) were spiked to both the sample types to ensure the performance of the measurements and monitor matrix effect.
Untargeted metabolite profiling was performed using a Vanquish UHPLC coupled with an Orbitrap Fusion Tribrid mass spectrometer (Thermo Fisher Scientific, Waltham, MA, United States of America) fitted with a HESI source. Chromatographic separation was performed on Waters Acquity HSS T3 1.8 µm Column (2.1 mm × 150 mm) (Waters Technologies, United States of America). The injection volume was 5 µL. The flow rate was set at 0.45 mL/min, and the column temperature was 40 °C. […] The gradient was as follows: 0% B from 0 to 2 min, 0%–10% B from 2 to 10 min, 10%–80% B from 10 to 25 min, 80%–100% B from 25 to 26 min, 100% B from 26 to 31 min, 100%–0% B from 31 to 32 min, and 3 min equilibration at 0% B.
Compound discoverer 3.1 (CD, Thermo Fisher Scientific, Waltham, MA, United States of America) was used for untargeted and novel feature detection. Raw files were processed with CD in the following steps: first, spectra were selected from raw data followed by retention time (RT) alignment with RT tolerance of 2 min and 5 ppm mass precision. Then, unknown compounds were detected and grouped with RT tolerance of 0.5 min and 5 ppm mass deviation. Missing values were filled. The composition was predicted based on the exact mass. The compounds were annotated with different types of databases. mzCloud was used to annotate compounds on the MS/MS level with a mass tolerance of 10 ppm. ChemSpider was used to annotate features based on the exact mass with a mass tolerance of 20 ppm.
Relevant features were identified by performing differential analysis between the vehicle and PAC treatment groups in Compound Discoverer software. […] Compound annotations of these features were checked for plausibility, and, if necessary, structural elucidation was manually continued.

[3] = tested on: scopolamine-induced working memory impairment; test: T-maze spontaneous alternation, scopolamine-induced memory impairment; assay type: in vivo; conditions: mice, p.o. 1 h before T-maze; donepezil 0.3 mg/kg
Protocol: To impair short-term memory, mice were injected intraperitoneally (i.p.) with 1 mg/kg scopolamine (S1875, Sigma-Aldrich) or 0.9% NaCl (PZN01399062, Fresenius) 20 min prior to the experimental session. […] Switching from the right to the left arm of the T-maze or vice versa was calculated as correct alternations (%). The method is based on the study by [Deacon (2006)]. At 15 min after the start of the T-maze observation and once the 20 arm entry trials were finalized, animals were euthanized with CO2, and blood was collected by cardiac puncture for EDTA-plasma (Figure 1).
Data were analyzed using GraphPad Prism 10.1.2 (GraphPad Software, La Jolla, CA). Experimental groups were compared using one-way analysis of variance (ANOVA) or two-way ANOVA, followed by Dunnett’s post-test. Vehicle and each active treatment group were compared to the vehicle–scopolamine group (that received vehicle p.o., followed by i.p. injection of scopolamine). For calculation of dose–response curves, reversal of the scopolamine-induced amnesia was calculated. […] For ROS data, baseline ROS levels without treatment were set as 0% inhibition. […] Emax, and relative ID50 values for the T-maze in vivo studies were taken directly from the calculated dose–response curve data provided by Graph Pad Prism. […]

[4] = after oral PACs, c = detected in mice plasma

Molecule: O=C(O)c1cc(O)c(O)c(O)c1 [M01, Gallic acid]
- plasma level versus PAC dose ([1]; plasma of PAC-treated mice, approximately 1 h 15 min after administration): dose-dependent increase
- Time points at which the metabolite was detected ([2]; rat, in vivo, po): 6 h

Molecule: Oc1cc(O)c2c(c1)O[C@H](c1cc(O)c(O)c(O)c1)[C@@H](O)C2 [M04, Gallocatechin]
- Compartment in which the metabolite was detected [2, 4]: Intestine

Molecule: COc1cc(C=O)ccc1O[C@@H]1O[C@H](C(=O)O)[C@@H](O)[C@H](O)[C@H]1O [M07, Vanillin glucuronide]
- Compartment in which the metabolite was detected [2, 4]: Urine

Molecule: O=C1CCC(Cc2cc(O)c(O)c(O)c2)O1 (stereo not shown) [M08, 5-(3',4',5'-trihydroxyphenyl)-gamma-Valerolactone]
- Time points at which the metabolite was detected ([2]; after oral PACs): 6 h
- Compartment in which the metabolite was detected [2, 4]: Intestine

Molecule: Oc1cc(O)c(CC(O)Cc2cc(O)c(O)c(O)c2)c(O)c1 (stereo not shown) [M09, 1-(3‘,4‘,5‘-trihydroxyphenyl)-3-(2‘‘,4‘‘,6‘‘-trihydroxyphenyl)propan-2-ol]
- Time points at which the metabolite was detected ([2]; after oral PACs): 6 h
- Compartment in which the metabolite was detected [2, 4]: Intestine

Molecule: Oc1cc(O)c2c(c1)O[C@H](c1cc(O)c(O)c(O)c1)[C@H](O)C2 [M10, Epigallocatechin]
- Compartment in which the metabolite was detected [2, 4]: Intestine

Molecule: Oc1cc(O)c2c(c1)OC(c1ccc(O)c(O)c1)C(O)C2 (stereo not shown) [M11, Catechin]
- Time points at which the metabolite was detected ([2]; after oral PACs): 6 h
- Compartment in which the metabolite was detected [2, 4]: Intestine

Molecule: O=C1CCC(Cc2cc(O)cc(O)c2)O1 (stereo not shown) [M12, 5-(3‘,5‘-Dihydroxyphenyl)-γ-Valerolactone]
- Time points at which the metabolite was detected ([2]; after oral PACs): 6 h
- Compartment in which the metabolite was detected [2, 4]: Intestine

Molecule: O=C1CCC(Cc2ccc(O)c(O)c2)O1 (stereo not shown) [M13, 5-(3‘,4‘-Dihydroxyphenyl)-γ-Valerolactone]
- Time points at which the metabolite was detected ([2]; after oral PACs): 6 h
- Compartment in which the metabolite was detected [2, 4]: Intestine

Molecule: Oc1cc(O)c(CC(O)Cc2ccc(O)c(O)c2)c(O)c1 (stereo not shown) [M14, 1-(3′,4′-dihydroxyphenyl)-3-(2″,4″,6″-trihydroxyphenyl)propan-2-ol]
- Time points at which the metabolite was detected ([2]; after oral PACs): 6 h
- Compartment in which the metabolite was detected [2, 4]: Intestine

Molecule: O=C(O[C@@H]1Cc2c(O)cc(O)cc2O[C@@H]1c1cc(O)c(O)c(O)c1)c1cc(O)c(O)c(O)c1 [M15, Epigallocatechin gallate]
- Time points at which the metabolite was detected ([2]; after oral PACs): 1 h
- Compartment in which the metabolite was detected [2, 4]: Intestine

Molecule: COc1cc(C(O)C(O)/C(=C\C(=O)O)c2ccccc2)cc(O)c1O (stereo not shown) [M17, (2Z)-5-(3,4-dihydroxy-5-methoxyphenyl)-4,5-dihydroxy-3-phenylpent-2-enoic acid]
- Time points at which the metabolite was detected ([2]; after oral PACs): 6 h
- Compartment in which the metabolite was detected [2, 4]: Intestine

Molecule: O=C(O)[C@H]1O[C@@H](Oc2c(-c3cc(O)c(O)c(O)c3)oc3cc(O)cc(O)c3c2=O)[C@H](O)[C@@H](O)[C@@H]1O [M18, Myricetin 3-O-glucuronide]
- Time points at which the metabolite was detected ([2]; after oral PACs): 1 h
- Compartment in which the metabolite was detected [2, 4]: Intestine

Molecule: COc1cc(-c2oc3cc(O)cc(O)c3c(=O)c2O[C@@H]2O[C@H](C(=O)O)[C@@H](O)[C@H](O)[C@H]2O)cc(O)c1O [M19, 5'-O-methyl Myricetin 3-O-glucuronide]
- Time points at which the metabolite was detected ([2]; after oral PACs): 1 h
- Compartment in which the metabolite was detected [2, 4]: Intestine

Molecule: O=c1c(O)c(-c2cc(O)c(O)c(O)c2)oc2cc(O)cc(O)c12 [M20, Myricetin]
- Compartment in which the metabolite was detected ([2]; rat, in vivo, po): Intestine
- Time points at which the metabolite was detected ([2]; rat, in vivo, po): 1h, 6h

Molecule: COc1cc(O)cc2oc(-c3cc(O)c(O)c(O)c3)c(O)c(=O)c12 [M21, 5-O-Methylmyricetin]
- Time points at which the metabolite was detected ([2]; after oral PACs): 6 h
- Compartment in which the metabolite was detected [2, 4]: Urine

Molecule: COc1cc2c(cc1OC)C(=O)C(CC1CCN(Cc3ccccc3)CC1)C2 (stereo not shown) [donepezil]
- effect on scopolamine-induced impairment of correct alternations [3]: largely prevented

Molecule: Gallic acid glucuronide [M03]
- Compartment in which the metabolite was detected [2, 4]: Urine

Molecule: Gallic acid-O-sulphate [M02]
- time of peak plasma level ([1]; mouse plasma, after PAC fraction 100 mg/kg p.o., peak area): 1 h
- Compartment in which the metabolite was detected [2, 4]: Plasmac

Molecule: Methylgallic acid-O-sulphate [M06]
- Compartment in which the metabolite was detected [2, 4]: Urine
